PubChem BioAssay (NCI)
“And” between values parts separate entries of the source, which are not always exact repeats. Equal entries are not always repeated.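 Briefly, cells in 96-well plates were exposed to five compound concentrations for 48 h, and endpoints were estimated by linear interpolation. TGI: total growth inhibition.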

Experiments:
Assay in all cases: NCI anticancer screen, dose series, 48 h
NCI-H522 lung = tested on: NCI-H522 lung
NCI-H226 lung = tested on: NCI-H226 lung
HCT-116 colon = tested on: HCT-116 colon
SR leukemia = tested on: SR leukemia
OVCAR-8 ovarian = tested on: OVCAR-8 ovarian
SN12C renal = tested on: SN12C renal

Compound	TGI (NCI-H522 lung)	TGI (NCI-H226 lung)	TGI (HCT-116 colon)	TGI (SR leukemia)	TGI (OVCAR-8 ovarian)	TGI (SN12C renal)
Nc1c(C(=O)c2ccccc2)[nH]c(NCc2ccccc2)c1C(=S)Nc1ccccc1	> 100 µM	> 100 µM	> 100 µM	> 100 µM	> 100 µM	> 100 µM
CSCCCCCCCCCCOc1ccc(C=C2C(=C(C#N)C#N)c3ccccc3C2=C(C#N)C#N)cc1	38.2 µM	79.9 µM	34.2 µM	52.6 µM	39.6 µM	–
Cc1ccc(C2=Nc3c(N)nc(N)nc3NC(c3ccccc3)C2)cc1 (configuration not stated)	16 µM and 30.9 µM	29.3 µM and 36.7 µM	17.5 µM and 17.6 µM	> 100 µM	29.3 µM and 28.8 µM	23.7 µM and 32 µM
CSCCC(NC(c1ccccc1)c1ccccc1)[P+](=O)O (configuration not stated)	> 100 µM	> 100 µM	> 100 µM	> 100 µM	> 100 µM	> 100 µM
Cc1cc2c(-c3ccccc3)cc(=O)[nH]c2cc1N	–	> 100 µM	> 100 µM	> 100 µM	> 100 µM	> 100 µM
Cc1ccc(S(=O)(=O)N/N=C2\C=C[C@]3(CC2)C(=O)N(C)c2ccccc23)cc1	–	> 100 µM	> 100 µM	> 100 µM	> 100 µM	> 100 µM
CC1(C)CC(=O)c2c(nc3ccc4ccccc4c3c2-c2ccc(NC(=O)CCCCC(=O)Nc3ccc(-c4c5c(nc6ccc7ccccc7c46)CC(C)(C)CC5=O)cc3)cc2)C1	–	> 100 µM	> 100 µM	> 100 µM	> 100 µM	> 100 µM
O=C(O)c1ccccc1/C=N\NC1=NCCN1	> 100 µM	> 100 µM	> 100 µM	> 100 µM	> 100 µM	> 100 µM
COc1cc2c(c(OC)c1OC)C(=O)CC2N (configuration not stated)	> 100 µM	> 100 µM	> 100 µM	–	> 100 µM	–
COC(=O)C1=C(C)NC(C)=C([N+](=O)[O-])C1c1cccc(NO)c1 (configuration not stated)	13.9 µM	> 47.3 µM	10.5 µM	8.93 µM	37.5 µM	> 30.8 µM
CC(C)(C)OC(=O)NC(Cc1ccc([N+](=O)[O-])cc1)C(=O)NC(CCCCNC(=O)OCc1ccccc1)C(=O)ON1C(=O)CCC1=O (configuration not stated)	> 100 µM	> 100 µM	> 100 µM	> 100 µM	> 100 µM	> 100 µM
C#CCOC(=O)c1ccccc1OC(C)=O	> 100 µM	> 100 µM	> 100 µM	> 100 µM	> 100 µM	> 100 µM
C=C(Cl)C(Cl)(CBr)CCC(Cl)C(C)(C)Cl (configuration not stated)	23 µM	61 µM	2.02 µM	39.4 µM	13 µM	22.5 µM
c1ccc(-c2cc(-c3cc(-c4ccccc4)n(-c4ccccc4)n3)nn2-c2ccccc2)cc1	> 100 µM	> 100 µM	> 100 µM	–	> 100 µM	> 100 µM
CCCCCCCCCN1CCC(=O)C(C(=O)OC)C1 (configuration not stated)	22 µM	27.5 µM	26.9 µM	18.1 µM	21 µM	29.5 µM
CO[C@H]1O[C@@H]2CO[C@@H](c3ccccc3)O[C@H]2C[C@]12CCC/C=C\CO2	23.6 µM	50.9 µM	23.5 µM	31.8 µM	25.2 µM	29.7 µM

Compound	TGI (NCI-H522 lung)	TGI (NCI-H226 lung)	TGI (HCT-116 colon)	TGI (SR leukemia)	TGI (OVCAR-8 ovarian)	TGI (SN12C renal)
Cc1cccc2c1C(=O)C(C1OC(=O)c3ccccc31)C2 (configuration not stated)	> 100 µM	> 100 µM	> 100 µM	> 100 µM	> 100 µM	> 100 µM
CC(=O)OC[C@@]12C[C@H]3C(=O)C(C)(C)C[C@H]3[C@]1(C)[C@@H](OC(C)=O)[C@]1(O)[C@H]([C@@H](OC(=O)c3ccccc3)[C@@H](C)[C@H]1OC(C)=O)[C@H]2OC(C)=O	> 20 µM	> 20 µM	> 20 µM	> 20 µM	> 20 µM	> 20 µM
N#Cc1c(NC(=S)NCc2ccccc2)sc2c1CCN(N1CCc3c(sc(NC(=S)NCc4ccccc4)c3C#N)C1)C2	> 100 µM	> 100 µM	> 100 µM	> 100 µM	> 100 µM	> 100 µM
CCOC(=O)CCC(NC(=O)OCc1ccccc1)C(=O)NC(CCC(=O)OCC)C(=O)NC(CCC(=O)OCC)C(=O)NC(CCC(=O)OCC)C(=O)NC(CCC(=O)OCC)C(=O)OCC (configuration not stated)	> 100 µM	–	> 100 µM	> 100 µM	> 100 µM	> 100 µM
CN1C[C@@H]2CCCN2P1Oc1cccc2cccnc12 (some centres not stated)	> 100 µM	> 100 µM	89 µM	> 100 µM	> 100 µM	> 100 µM
Cc1nc2c(-c3ccccc3)[nH]c(C)c2c(=O)o1	> 100 µM	> 100 µM	> 100 µM	> 100 µM	> 100 µM	> 100 µM
C[N+]1(C)CN(c2ccccc2)C2(CCN(CCCC(=O)c3cccs3)CC2)C1=O	> 100 µM	> 100 µM	> 100 µM	> 100 µM	> 100 µM	> 100 µM
CC(C)[Si]1(C(C)C)OCC2OC(n3ccc(=O)[nH]c3=O)C(O)(CO)C2O[Si](C(C)C)(C(C)C)O1 (configuration not stated)	–	36.8 µM	27.7 µM	30 µM	29.5 µM	29.8 µM
COc1ccc(C)cc1NC(=S)N/N=C/c1ccc(SC)cc1	> 100 µM	–	> 100 µM	> 100 µM	> 100 µM	> 100 µM
CCOC(=O)c1c(SCCO)n(-c2ccccc2)c(=S)n(-c2ccccc2)c1=O	> 100 µM	> 100 µM	> 100 µM	> 100 µM	> 100 µM	> 100 µM
O=C(C1OC1c1ccc([N+](=O)[O-])cc1)C12CC3CC(CC(C3)C1)C2 (configuration not stated)	54 µM	39.4 µM	22 µM	–	38.2 µM	29.7 µM
CC/C(Cl)=N\OC(=O)Nc1ccc(C#N)cc1	2.82 µM	30.9 µM	28.1 µM	22.7 µM	30.7 µM	30.3 µM
C[C@@H]1C(O)CC[C@H](C)C12CC=CC2=O (some centres not stated)	> 100 µM	> 100 µM	> 100 µM	> 100 µM	–	> 100 µM
CC(C)(C)/C(O)=C\c1nc2cc(C(F)(F)F)ccc2[nH]c1=O	> 100 µM	> 100 µM	> 100 µM	–	> 100 µM	> 100 µM
Cc1ccc(/C=N/Nc2ncccn2)s1	> 100 µM	> 100 µM	> 100 µM	–	> 100 µM	> 100 µM
